The record followed here is US5530126A, “Process for the preparation of substituted 6-(pyrazol-3yl)-1,4-benzoxazin-3-ones” (Monsanto Company, priority 1994, dated 1996).

What all share (type): in vivo
Assay [1] relates to Annual bluegrass. As to the kind of experiment: Pre-emergence herbicide test. Conditions: read-out: % plant inhibition (Anbg); for inhibition at 1120 g/ha: 1.12 kg/ha. In short, it runs like this: (§1)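 Pre-emergence greenhouse soil test. Compound applied to seeded soil surface before covering with untreated topsoil. Percent inhibition scored around day 11.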
In assay [2] the test system is Barnyardgrass. Put plainly: Pre-emergence herbicide test. The note with it: Echinochloa crus-galli, read-out: % plant inhibition (Bygr); for inhibition at 1120 g/ha: 1.12 kg/ha. An outline of the steps:
as §1

Assay [3] deals with Cocklebur. Put plainly: Pre-emergence herbicide test. The note with it: Xanthium strumarium, read-out: % plant inhibition (Cobu); for inhibition at 1120 g/ha: 1.12 kg/ha. In short, it runs like this: as §1
For assay [4], the system named is Downy Brome. Put plainly: Pre-emergence herbicide test. Conditions: Bromus tectorum, read-out: % plant inhibition (Dobr); for inhibition at 1120 g/ha: 1.12 kg/ha. An outline of the steps:
as §1

In assay [5] the test system is Indian Mustard. Put plainly: Pre-emergence herbicide test. Conditions: Brassica juncea, read-out: % plant inhibition (Inmu); for inhibition at 1120 g/ha: 1.12 kg/ha. In short, it runs like this:
as §1

In assay [6] the test system is Morningglory. Put plainly: Pre-emergence herbicide test. The note with it: Ipomoea, read-out: % plant inhibition (Mogl); for inhibition at 1120 g/ha: 1.12 kg/ha. In short, it runs like this:
as §1

For assay [7], the system named is Seedling johnsongrass. Put plainly: Pre-emergence herbicide test. The note with it: Sorghum halepense, read-out: % plant inhibition (Sejg); for inhibition at 1120 g/ha: 1.12 kg/ha. An outline of the steps:
as §1

Assay [8] deals with Velvetleaf. As to the kind of experiment: Pre-emergence herbicide test. The note with it: Abutilon theophrasti, read-out: % plant inhibition (Vele); for inhibition at 1120 g/ha: 1.12 kg/ha. In short, it runs like this:
as §1

The subject of assay [9] is Wild buckwheat. As to the kind of experiment: Pre-emergence herbicide test. Conditions: Fallopia convolvulus, read-out: % plant inhibition (Wibw); for inhibition at 1120 g/ha: 1.12 kg/ha. An outline of the steps:
as §1

Assay [10] deals with Yellow nutsedge. As to the kind of experiment: Pre-emergence herbicide test. The note with it: Cyperus, read-out: % plant inhibition (Yens); for inhibition at 1120 g/ha: 1.12 kg/ha. In short, it runs like this: as §1
For assay [11], the system named is Annual bluegrass. Put plainly: Post-emergence herbicide test. The note with it: read-out: % plant inhibition (Anbg); for inhibition at 1120 g/ha: 1.12 kg/ha. In short, it runs like this: (§2)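 Percent growth inhibition against untreated plants, assessed roughly 11 days (range 10–14) after treatment and in some cases at about 25 days. Foliar application was to two- to three-week-old greenhouse plants at 1870 L/Ha spray volume.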

Assay [12] has as its system Barnyardgrass. As to the kind of experiment: Post-emergence herbicide test. The note with it: Echinochloa crus-galli, read-out: % plant inhibition (Bygr); for inhibition at 1120 g/ha: 1.12 kg/ha. An outline of the steps:
as §2

Assay [13] deals with Cocklebur. Put plainly: Post-emergence herbicide test. Conditions: Xanthium strumarium, read-out: % plant inhibition (Cobu); for inhibition at 1120 g/ha: 1.12 kg/ha. An outline of the steps:
as §2

Assay [14] relates to Downy Brome. Put plainly: Post-emergence herbicide test. The note with it: Bromus tectorum, read-out: % plant inhibition (Dobr); for inhibition at 1120 g/ha: 1.12 kg/ha. An outline of the steps:
as §2

For assay [15], the system named is Indian Mustard. As to the kind of experiment: Post-emergence herbicide test. The note with it: Brassica juncea, read-out: % plant inhibition (Inmu); for inhibition at 1120 g/ha: 1.12 kg/ha. In short, it runs like this:
as §2

In assay [16] the test system is Morningglory. As to the kind of experiment: Post-emergence herbicide test. The note with it: Ipomoea, read-out: % plant inhibition (Mogl); for inhibition at 1120 g/ha: 1.12 kg/ha. An outline of the steps:
as §2

The test system of assay [17] is Seedling johnsongrass. Put plainly: Post-emergence herbicide test. The note with it: Sorghum halepense, read-out: % plant inhibition (Sejg); for inhibition at 1120 g/ha: 1.12 kg/ha. In short, it runs like this:
as §2

Assay [18] deals with Velvetleaf. Put plainly: Post-emergence herbicide test. The note with it: Abutilon theophrasti, read-out: % plant inhibition (Vele); for inhibition at 1120 g/ha: 1.12 kg/ha. An outline of the steps:
as §2

In assay [19] the test system is Wild buckwheat. As to the kind of experiment: Post-emergence herbicide test. Conditions: Fallopia convolvulus, read-out: % plant inhibition (Wibw); for inhibition at 1120 g/ha: 1.12 kg/ha. An outline of the steps:
as §2

Assay [20] deals with Yellow nutsedge. As to the kind of experiment: Post-emergence herbicide test. Conditions: Cyperus, read-out: % plant inhibition (Yens); for inhibition at 1120 g/ha: 1.12 kg/ha. An outline of the steps:
as §2

In assay [21] the test system is resistant broadleaf weeds such as pigweed, cocklebur, velvetleaf and hemp sesbania. As to the kind of experiment: Control of resistant broadleaf weeds in crops. The note with it: in various crops such as corn, soybean and nuts and in forestry.

A word on the inhibition: it is how much of the control response was suppressed. `CC(C)OC(=O)c1cc(-c2nn(C)c(C(F)(F)F)c2Cl)c(F)cc1Cl` [Compound 135, 2-chloro-5-[4-chloro-1-methyl-5-(trifluoromethyl)-1H-pyrazol-3-yl]-4-fluorobenzoic acid, 1-methylethyl ester]: the inhibition at 1120 g/ha came out at 100% with Annual bluegrass [1]; 100% in the assay on Barnyardgrass [2]; 90% in the assay with Cocklebur [3]; 100% in the assay on Downy Brome [4]; 100% with Indian Mustard [5]; 90% in the assay on Morningglory [6]. For the same molecule, the inhibition at 1120 g/ha was determined as 100% in the assay on Seedling johnsongrass [7]; 100% with Velvetleaf [8]; 100% with Wild buckwheat [9]; 0% with Yellow nutsedge [10]; 100% with Annual bluegrass [11]; 100% with Barnyardgrass [12]. The inhibition at 1120 g/ha with Cocklebur [13], with Downy Brome [14], in the assay on Indian Mustard [15], in the assay with Morningglory [16], in the assay on Seedling johnsongrass [17] and in the assay on Velvetleaf [18] was 100% throughout. Also, the inhibition at 1120 g/ha is 100% in the assay with Wild buckwheat [19] and 20% in the assay on Yellow nutsedge [20]. For the same molecule, the “control of resistant broadleaf weeds” value in assay [21] is on record as “outstanding control”.
As for `COC(=O)C(C)OC(=O)c1cc(-c2nn(C)c(C(F)(F)F)c2Cl)c(F)cc1Cl` (stereo not drawn) [Compound 137, 2-Chloro-5-(4-chloro-1-methyl-5-(trifluoromethyl)-1H-pyrazol-3-yl)-4-fluorobenzoic acid, 2-methoxy-1-methyl-2-oxoethyl ester], the inhibition at 1120 g/ha in the assay with Annual bluegrass [1] was determined as 70%; in the assay on Barnyardgrass [2], 70%; in the assay with Cocklebur [3], 100%; with Downy Brome [4] it was 80%; with Indian Mustard [5], 100%; in the assay with Morningglory [6], 100%. Besides, the inhibition at 1120 g/ha in the assay on Seedling johnsongrass [7] stood at 50%; with Velvetleaf [8], 100%; in the assay on Wild buckwheat [9] it was 90%; in the assay on Yellow nutsedge [10], 20%; in the assay with Annual bluegrass [11], 100%; with Barnyardgrass [12] it was 100%. Besides, the inhibition at 1120 g/ha in the assay with Cocklebur [13], with Downy Brome [14], in the assay with Indian Mustard [15], with Morningglory [16], with Seedling johnsongrass [17] and in the assay on Velvetleaf [18] was 100% throughout. In addition, the inhibition at 1120 g/ha was 100% with Wild buckwheat [19] and 20% in the assay with Yellow nutsedge [20]. In addition, in [21], the “control of resistant broadleaf weeds” value was “outstanding control”.
Turning to `C#CCOc1cc(-c2nn(C)c(C(F)(F)F)c2Cl)c(F)cc1Cl` [Compound 261, 4-Chloro-3-(4-chloro-2-fluoro-5-propargyl-oxyphenyl)-1-methyl-5-(trifluoromethyl)-1H-pyrazole], the inhibition at 11210 g/ha with Annual bluegrass [1] (11.21 kg/ha), with Barnyardgrass [2] (11.21 kg/ha), in the assay with Cocklebur [3] (11.21 kg/ha), in the assay on Downy Brome [4] (11.21 kg/ha), in the assay with Indian Mustard [5] (11.21 kg/ha) and in the assay on Morningglory [6] (11.21 kg/ha) was 100% each time. Further, the inhibition at 11210 g/ha came out at 100% in the assay on Seedling johnsongrass [7] (11.21 kg/ha); 100% in the assay with Velvetleaf [8] (11.21 kg/ha); 100% with Wild buckwheat [9] (11.21 kg/ha); 30% with Yellow nutsedge [10] (11.21 kg/ha); 100% in the assay with Annual bluegrass [11] (11.21 kg/ha); 100% with Barnyardgrass [12] (11.21 kg/ha). Besides, the inhibition at 11210 g/ha in the assay on Cocklebur [13] (11.21 kg/ha), with Downy Brome [14] (11.21 kg/ha), in the assay on Indian Mustard [15] (11.21 kg/ha), with Morningglory [16] (11.21 kg/ha), with Seedling johnsongrass [17] (11.21 kg/ha) and with Velvetleaf [18] (11.21 kg/ha) was 100% throughout. Also, the inhibition at 11210 g/ha in the assay with Wild buckwheat [19] (11.21 kg/ha) amounted to 100%; in the assay with Yellow nutsedge [20] (11.21 kg/ha), 20%. Besides, the “control of resistant broadleaf weeds” value in assay [21] is “outstanding control”.
In the case of `CC(C)OC(=O)COc1cc(-c2nn(C)c(C(F)(F)F)c2Cl)c(F)cc1Cl` [Compound 282, (2-Chloro-5-(4-chloro-1-methyl-5-(trifluoromethyl)-1H-pyrazol-3-yl)-4-fluorophenoxy)acetic acid, 1-methylethyl ester], the inhibition at 1120 g/ha in the assay with Annual bluegrass [1] stood at 20%; in the assay on Barnyardgrass [2] it was 20%; in the assay on Cocklebur [3], 30%; in the assay with Downy Brome [4] it was 20%; with Indian Mustard [5], 30%; with Morningglory [6], 90%. The inhibition at 1120 g/ha with Seedling johnsongrass [7] was found to be 30%; in the assay with Velvetleaf [8], 100%; in the assay on Wild buckwheat [9], 90%; with Yellow nutsedge [10] it was 40%; with Annual bluegrass [11] it was 0%; with Barnyardgrass [12], 30%. In addition, the inhibition at 1120 g/ha was determined as 100% in the assay on Cocklebur [13]; 0% in the assay with Downy Brome [14]; 10% with Indian Mustard [15]; 70% with Morningglory [16]; 20% in the assay on Seedling johnsongrass [17]; 100% with Velvetleaf [18]. Further, the inhibition at 1120 g/ha turned out to be 100% in the assay on Wild buckwheat [19] and 10% with Yellow nutsedge [20]. Further, the “control of resistant broadleaf weeds” value in assay [21] was “outstanding control”.
Consider `C#CCN1C(=O)COc2cc(F)c(-c3nn(C)c(C(F)(F)F)c3Cl)cc21` [Compound 446, 6-(4-Chloro-1-methyl-5-(trifluoromethyl)-1H-pyrazol-3-yl)-7-fluoro-4-(2-propynyl)-2H-1,4-benzoxazin-3-(4H)-one], for which the inhibition at 1120 g/ha was 100% with Annual bluegrass [1]; 80% in the assay with Barnyardgrass [2]; 100% in the assay on Cocklebur [3]; 90% with Downy Brome [4]; 100% in the assay with Indian Mustard [5]; 100% in the assay with Morningglory [6]. Besides, the inhibition at 1120 g/ha in the assay on Seedling johnsongrass [7] was determined as 80%; in the assay with Velvetleaf [8], 90%; with Wild buckwheat [9] it was 100%; in the assay with Yellow nutsedge [10], 60%; in the assay with Annual bluegrass [11], 100%; with Barnyardgrass [12] it was 100%. The inhibition at 1120 g/ha is 100% in the assay with Cocklebur [13]; 100% in the assay with Downy Brome [14]; 100% in the assay with Indian Mustard [15]; 100% in the assay on Morningglory [16]; 90% with Seedling johnsongrass [17]; 100% with Velvetleaf [18]. The inhibition at 1120 g/ha in the assay with Wild buckwheat [19] stood at 100%; in the assay on Yellow nutsedge [20] it was 40%. The “control of resistant broadleaf weeds” value in assay [21] was “outstanding control”.
